Assay results as given in the supplement of paper PMC10307832.

Legend:
Assay in all cases: relative viability (nuclei count vs DMSO), 5 days (fraction); higher = more cells survive
NCI-H322M = system: NCI-H322M
In short: (§1)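 Cells from lung cancer lines were seeded into 1536-well plates and, one day later, dosed by pin tool. Treatments were either a single drug or a fixed dose of an anchor drug with five library-drug doses (not always all listed) in √10 steps. After 5 days, nuclei were stained in a one-step fixation (final 0.05% Triton X-100, 1% formaldehyde, 1 ug/ml Hoechst) and counted on 4× images, and relative viability is the treated-to-vehicle nuclei ratio, as the median of duplicate plates.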

SK-LU-1 = system: SK-LU-1
In short: as §1

EKVX = system: EKVX
In short: as §1

EPLC-272H = system: EPLC-272H
In short: as §1

NCI-H2126 = system: NCI-H2126
In short: as §1

NCI-H23 = system: NCI-H23
In short: as §1

EMC-BAC-2 = system: EMC-BAC-2
In short: as §1

PC-14 = system: PC-14
In short: as §1

LK-2 = system: LK-2
In short: as §1

NCI-H2405 = system: NCI-H2405
In short: as §1

NCI-H1975 = system: NCI-H1975
In short: as §1

RERF-LC-KJ = system: RERF-LC-KJ
In short: as §1

HCC-78 = system: HCC-78
In short: as §1

NCI-H1666 = system: NCI-H1666
In short: as §1

NCI-H1563 = system: NCI-H1563
In short: as §1

SW 1573 = system: SW 1573
In short: as §1

LU99A = system: LU99A
In short: as §1

In the case of `CC(=O)O[C@@]12CO[C@@H]1C[C@H](O)[C@@]1(C)C(=O)[C@H](O)C3=C(C)[C@@H](OC(=O)[C@H](O)[C@@H](NC(=O)OC(C)(C)C)c4ccccc4)C[C@@](O)([C@@H](OC(=O)c4ccccc4)[C@H]21)C3(C)C` [Docetaxel] + CS(=O)(=O)CCNCc1ccc(-c2ccc3ncnc(Nc4ccc(OCc5cccc(F)c5)c(Cl)c4)c3c2)o1 [Lapatinib] (partner 2 µM), the relative viability (NCI-H322M; first compound 0.0002 µM) is reported as 0.511, the relative viability (NCI-H322M; first compound 0.000632 µM) is reported as 0.593 and the relative viability (NCI-H322M; first compound 0.002 µM) is reported as 0.497. The relative viability (NCI-H322M; first compound 0.006325 µM) was 0.46, the relative viability (NCI-H322M; first compound 0.02 µM) was 0.293 and the relative viability (SK-LU-1; first compound 0.0002 µM) was 0.581. For the same molecule, the relative viability (SK-LU-1; first compound 0.000632 µM) was 0.436, the relative viability (SK-LU-1; first compound 0.002 µM) was 0.338 and the relative viability (SK-LU-1; first compound 0.006325 µM) was 0.222. It also gave a relative viability (SK-LU-1; first compound 0.02 µM) of 0.233, a relative viability (EKVX; first compound 0.0002 µM) of 0.212 and a relative viability (EKVX; first compound 0.000632 µM) of 0.173. For the same molecule, the relative viability (EKVX; first compound 0.002 µM) was 0.14, the relative viability (EKVX; first compound 0.006325 µM) was 0.141 and the relative viability (EKVX; first compound 0.02 µM) was 0.119. It also gave a relative viability (EPLC-272H; first compound 0.0002 µM) of 1.04, a relative viability (EPLC-272H; first compound 0.000632 µM) of 0.76 and a relative viability (EPLC-272H; first compound 0.002 µM) of 0.199. The relative viability (EPLC-272H; first compound 0.006325 µM) was 0.0933, the relative viability (EPLC-272H; first compound 0.02 µM) was 0.114 and the relative viability (NCI-H2126; first compound 0.0002 µM) was 0.738. The relative viability (NCI-H2126; first compound 0.000632 µM) was 0.683, the relative viability (NCI-H2126; first compound 0.002 µM) was 0.562 and the relative viability (NCI-H2126; first compound 0.006325 µM) was 0.395. For the same molecule, the relative viability (NCI-H2126; first compound 0.02 µM) was 0.253, the relative viability (NCI-H23; first compound 0.0002 µM) was 0.963 and the relative viability (NCI-H23; first compound 0.000632 µM) was 0.725. For the same molecule, the relative viability (NCI-H23; first compound 0.002 µM) was 0.356, the relative viability (NCI-H23; first compound 0.006325 µM) was 0.157 and the relative viability (NCI-H23; first compound 0.02 µM) was 0.123. It also gave a relative viability (EMC-BAC-2; first compound 0.0002 µM) of 0.735, a relative viability (EMC-BAC-2; first compound 0.000632 µM) of 0.613 and a relative viability (EMC-BAC-2; first compound 0.002 µM) of 0.337. The relative viability (EMC-BAC-2; first compound 0.006325 µM) was 0.278, the relative viability (EMC-BAC-2; first compound 0.02 µM) was 0.209 and the relative viability (PC-14; first compound 0.0002 µM) was 0.272. For the same molecule, the relative viability (PC-14; first compound 0.000632 µM) was 0.417, the relative viability (PC-14; first compound 0.002 µM) was 0.235 and the relative viability (PC-14; first compound 0.006325 µM) was 0.0958. It also gave a relative viability (PC-14; first compound 0.02 µM) of 0.0629, a relative viability (LK-2; first compound 0.0002 µM) of 0.843 and a relative viability (LK-2; first compound 0.000632 µM) of 0.662. It also gave a relative viability (LK-2; first compound 0.002 µM) of 0.244, a relative viability (LK-2; first compound 0.006325 µM) of 0.248 and a relative viability (LK-2; first compound 0.02 µM) of 0.148. The relative viability (NCI-H2405; first compound 0.0002 µM) was 1.03, the relative viability (NCI-H2405; first compound 0.000632 µM) was 0.623 and the relative viability (NCI-H2405; first compound 0.002 µM) was 0.557. The relative viability (NCI-H2405; first compound 0.006325 µM) was 0.488, the relative viability (NCI-H2405; first compound 0.02 µM) was 0.345 and the relative viability (NCI-H1975; first compound 0.0002 µM) was 0.884. It also gave a relative viability (NCI-H1975; first compound 0.000632 µM) of 0.449, a relative viability (NCI-H1975; first compound 0.002 µM) of 0.268 and a relative viability (NCI-H1975; first compound 0.006325 µM) of 0.175. The relative viability (NCI-H1975; first compound 0.02 µM) was 0.142, the relative viability (RERF-LC-KJ; first compound 0.0002 µM) was 0.808 and the relative viability (RERF-LC-KJ; first compound 0.000632 µM) was 0.841. It also gave a relative viability (RERF-LC-KJ; first compound 0.002 µM) of 0.498, a relative viability (RERF-LC-KJ; first compound 0.006325 µM) of 0.177 and a relative viability (RERF-LC-KJ; first compound 0.02 µM) of 0.198. The relative viability (HCC-78; first compound 0.0002 µM) was 0.593, the relative viability (HCC-78; first compound 0.000632 µM) was 0.634 and the relative viability (HCC-78; first compound 0.002 µM) was 0.461. For the same molecule, the relative viability (HCC-78; first compound 0.006325 µM) was 0.246, the relative viability (HCC-78; first compound 0.02 µM) was 0.204 and the relative viability (NCI-H1666; first compound 0.0002 µM) was 0.462. It also gave a relative viability (NCI-H1666; first compound 0.000632 µM) of 0.461, a relative viability (NCI-H1666; first compound 0.002 µM) of 0.299 and a relative viability (NCI-H1666; first compound 0.006325 µM) of 0.197. It also gave a relative viability (NCI-H1666; first compound 0.02 µM) of 0.198, a relative viability (NCI-H1563; first compound 0.0002 µM) of 0.969 and a relative viability (NCI-H1563; first compound 0.000632 µM) of 1.01. It also gave a relative viability (NCI-H1563; first compound 0.002 µM) of 0.971, a relative viability (NCI-H1563; first compound 0.006325 µM) of 0.747 and a relative viability (NCI-H1563; first compound 0.02 µM) of 0.581. For the same molecule, the relative viability (SW 1573; first compound 0.0002 µM) was 1.06, the relative viability (SW 1573; first compound 0.000632 µM) was 0.946 and the relative viability (SW 1573; first compound 0.002 µM) was 0.321. It also gave a relative viability (SW 1573; first compound 0.006325 µM) of 0.256, a relative viability (SW 1573; first compound 0.02 µM) of 0.192 and a relative viability (LU99A; first compound 0.0002 µM) of 0.799. It also gave a relative viability (LU99A; first compound 0.000632 µM) of 0.424, a relative viability (LU99A; first compound 0.002 µM) of 0.423 and a relative viability (LU99A; first compound 0.006325 µM) of 0.255. It also gave a relative viability (LU99A; first compound 0.02 µM) of 0.188.
